The text below walks through data of US4532255A, “Amidine compounds and anticomplement agent comprising same” (Torii & Co., Ltd., priority 1980, dated 1985).

Each structure is given as a SMILES string. pIC50: −log10 of the molar value. Several values for one entry are separate records, joined by “and”; a condition that tells them apart may be missing. Identical values can stand only once.

The test system of one series is Kallikrein. In words: Anti-kallikrein activity (hydrolysis of TAME). The series is classed as biochemical. Conditions: molar concentration inhibiting 50% of TAME hydrolysis; read-out: Kallikrein ID50.
For series [1], the target named is T1, Trypsin (Bos taurus, UniProt P00760).
T1 sequence (P00760 24-246): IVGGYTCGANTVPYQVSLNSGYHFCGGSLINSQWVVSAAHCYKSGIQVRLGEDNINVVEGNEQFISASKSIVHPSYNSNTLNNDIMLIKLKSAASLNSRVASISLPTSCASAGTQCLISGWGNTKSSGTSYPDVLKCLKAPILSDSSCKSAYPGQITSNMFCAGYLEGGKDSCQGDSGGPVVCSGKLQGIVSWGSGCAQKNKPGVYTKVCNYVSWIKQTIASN
Conditions: G. Wagner et al., Pharmazie 1977; cited from earlier work.

The target of series [2] is T2, Thrombin (Homo sapiens, UniProt P00734). The note with it: G. Wagner et al., Pharmazie 1977; cited from earlier work.
Series [3] has as its target T3, Plasmin (Homo sapiens, UniProt P00747). The note with it: G. Wagner et al., Pharmazie 1977; cited from earlier work.
Series [4] concerns the target T1, Trypsin. The series is described as follows: Anti-trypsin activity (hydrolysis of TAME). The note with it: molar concentration inhibiting 50% of TAME hydrolysis; read-out: Trypsin ID50. Format: biochemical. How it is done:
(§1) The anti-trypsin, anti-plasmin, anti-kallikrein and anti-thrombin activities were determined according to the method of Muramatsu et al. [M. Muramatsu, T. Onishi, S. Makino, Y. Hayashi and S. Fujii, J. of Biochem., 58, 214 (1965)]. […] The compound No. corresponds to the compound number shown in Examples.

The target of series [5] is T3, Plasmin. In words: Anti-plasmin activity (hydrolysis of TAME). Format: biochemical. The note with it: molar concentration inhibiting 50% of TAME hydrolysis; read-out: Plasmin ID50. As to the method:
as §1

Series [6] deals with T2, Thrombin. The series is described as follows: biochemical. The note with it: for inhibition at 10 µM: at 1×10^-5 M, read-out: Thrombin percentage inhibition.
Series [7] relates to complement mediated hemolysis. In words: Inhibition of complement mediated hemolysis. The series is classed as cell-based.
Method: The principle of this method is based on the fact that hemolysis is caused by the activation of complement, when the latter is added to a complex (immune complex) of erythrocytes and the antibody thereof. The degree of hemolysis varies in proportion to the amount of complement added. Therefore, when a known amount of complement admixed with a C1 esterase inhibitor is used, the hemolysis must be suppressed in proportion to the inhibitory activity.
A further series has as its target T4, C1r (Homo sapiens, UniProt P00736).
T4 sequence (P00736 464-705 limits assumed): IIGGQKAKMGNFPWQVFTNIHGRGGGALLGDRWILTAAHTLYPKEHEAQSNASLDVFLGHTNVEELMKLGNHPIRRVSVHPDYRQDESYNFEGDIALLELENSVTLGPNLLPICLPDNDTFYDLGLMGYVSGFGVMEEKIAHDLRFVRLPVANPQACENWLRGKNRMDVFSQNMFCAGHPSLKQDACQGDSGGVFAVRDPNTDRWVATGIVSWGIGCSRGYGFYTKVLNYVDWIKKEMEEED
T4 sequence (P00736 18-463 partner limits assumed): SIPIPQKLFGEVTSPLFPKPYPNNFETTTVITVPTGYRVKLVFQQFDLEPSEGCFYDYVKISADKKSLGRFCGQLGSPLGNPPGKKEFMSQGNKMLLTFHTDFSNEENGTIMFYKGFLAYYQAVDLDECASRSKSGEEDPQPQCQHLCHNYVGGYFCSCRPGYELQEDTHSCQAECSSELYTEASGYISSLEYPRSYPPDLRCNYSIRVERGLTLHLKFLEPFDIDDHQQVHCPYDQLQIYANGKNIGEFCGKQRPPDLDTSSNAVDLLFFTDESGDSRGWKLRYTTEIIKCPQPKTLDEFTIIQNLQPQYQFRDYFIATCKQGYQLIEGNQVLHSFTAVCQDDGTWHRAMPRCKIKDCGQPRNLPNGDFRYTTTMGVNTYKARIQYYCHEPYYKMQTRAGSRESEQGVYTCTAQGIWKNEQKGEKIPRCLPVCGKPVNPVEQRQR
The series is described as follows: Anti-C1 esterase (C1r) activity (hydrolysis of AAME). Format: biochemical. As to the method: The anti-Cl esterase ([…]) activity was determined according to the method of Okamura et al. [K. Okamura, M. Muramatsu and S. Fujii, Biochem. Biophys.

In the next series the test system is Forssman shock. In words: Forssman shock (survival time after hemolysin). The series is classed as in vivo, Male Hartlay guinea pig. The note with it: 5 minutes before hemolysin. An excerpt:
Quite different from other animals, guinea pig has on the surface of its organs a specific antigen called Forssman antigen which specifically reacts with the antibody of sheep erythrocyte. Forssman shock is based on the above principle and is a shock caused by the administration of antibody of sheep erythrocyte to a guinea pig. The Forssman shock was investigated in detail by many researchers and it was definitely shown that this shock is a model case where the complement plays the principal part and that the shock is associated with a classical pathway in which the complement system is activated progressively starting from C1. Since the participation of complement in autoimmune diseases has been established, the Forssman shock can be said to be a useful means for testing a drug for autoimmune diseases. A drug effective for the treatment of Forssman shock is useful as a drug of autoimmune diseases. [Anti-trypsin, anti-plasmin, anti-kallikrein and anti-thrombin activities]
The experiment was performed according to the method of I. G. Offerness et al. [Biochem. Pharmacol., 27 (14), 1873-1878 (1978)]. Male Hartlay guinea pig of about 300 g in body weight was used. Each guinea pig of the control group was administered intravenously with 0.5 ml (minimum dose to cause the shock) of hemolysin (commercial hemolysin, 5,000 U as assayed by the method of Ogata) and the time elapsed until death was observed. For the test group, each guinea pig was administered intravenously with the test compound 5 minutes before the administration of hemolysin and the time (second) elapsed until death was observed.

Series [8] is described as follows: Toxicity, median lethal dose (LD50). Conditions: in vivo.
Series [9] deals with T5, C1s (Homo sapiens, UniProt P09871).
T5 sequence (P09871 438-688 limits assumed): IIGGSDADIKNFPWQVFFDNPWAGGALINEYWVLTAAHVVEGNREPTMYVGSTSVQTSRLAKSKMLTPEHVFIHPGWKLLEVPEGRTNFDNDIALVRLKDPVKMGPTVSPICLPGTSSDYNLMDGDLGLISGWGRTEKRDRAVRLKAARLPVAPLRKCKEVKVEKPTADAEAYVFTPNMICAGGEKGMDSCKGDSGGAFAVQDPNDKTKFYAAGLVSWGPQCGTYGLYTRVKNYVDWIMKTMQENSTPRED
T5 sequence (P09871 16-437 partner limits assumed): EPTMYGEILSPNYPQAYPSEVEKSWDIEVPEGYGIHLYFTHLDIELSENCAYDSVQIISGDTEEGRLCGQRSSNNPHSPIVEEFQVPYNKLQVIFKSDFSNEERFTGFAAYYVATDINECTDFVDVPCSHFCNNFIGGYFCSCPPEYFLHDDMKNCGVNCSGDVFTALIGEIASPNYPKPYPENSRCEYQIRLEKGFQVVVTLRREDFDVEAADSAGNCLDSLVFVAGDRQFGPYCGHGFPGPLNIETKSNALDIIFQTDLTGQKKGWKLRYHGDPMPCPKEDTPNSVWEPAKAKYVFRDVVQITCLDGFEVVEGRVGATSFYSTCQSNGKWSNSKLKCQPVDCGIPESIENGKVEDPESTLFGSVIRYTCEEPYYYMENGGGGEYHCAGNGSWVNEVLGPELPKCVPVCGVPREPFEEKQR
The series is described as follows: biochemical. The note with it: ATEE hydrolysis; read-out: Anti-C1 activity, C1s ID50. How it is done:
The anti-Cl esterase (Clr, Cls) activity was determined according to the method of Okamura et al. [K. Okamura, M. Muramatsu and S. Fujii, Biochem. Biophys. […] The figures in Table 2 have the following meanings:
Cls: Molar concentration of the test compound which inhibits 50% of the ability of Cls to hydrolyse ATEE (acetyltyrosin ethyl ester).

Series [10] concerns the target T5, C1s. In words: biochemical. Conditions: at 1×10^-5 M; read-out: Anti-C1 activity, C1s percent inhibition.
A further series relates to complement. Conditions: Y. Takada et al., Immunology 1978; cited from earlier work.

T3 sequence (P00747 581-810 limits assumed, species assumed): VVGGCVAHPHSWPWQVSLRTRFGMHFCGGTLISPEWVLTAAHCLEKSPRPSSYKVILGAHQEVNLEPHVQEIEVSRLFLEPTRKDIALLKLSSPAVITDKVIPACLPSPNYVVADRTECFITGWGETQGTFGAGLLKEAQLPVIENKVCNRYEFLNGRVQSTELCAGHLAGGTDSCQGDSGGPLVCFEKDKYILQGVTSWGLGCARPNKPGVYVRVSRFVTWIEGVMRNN
T3 sequence (P00747 97-580 partner limits assumed, species assumed): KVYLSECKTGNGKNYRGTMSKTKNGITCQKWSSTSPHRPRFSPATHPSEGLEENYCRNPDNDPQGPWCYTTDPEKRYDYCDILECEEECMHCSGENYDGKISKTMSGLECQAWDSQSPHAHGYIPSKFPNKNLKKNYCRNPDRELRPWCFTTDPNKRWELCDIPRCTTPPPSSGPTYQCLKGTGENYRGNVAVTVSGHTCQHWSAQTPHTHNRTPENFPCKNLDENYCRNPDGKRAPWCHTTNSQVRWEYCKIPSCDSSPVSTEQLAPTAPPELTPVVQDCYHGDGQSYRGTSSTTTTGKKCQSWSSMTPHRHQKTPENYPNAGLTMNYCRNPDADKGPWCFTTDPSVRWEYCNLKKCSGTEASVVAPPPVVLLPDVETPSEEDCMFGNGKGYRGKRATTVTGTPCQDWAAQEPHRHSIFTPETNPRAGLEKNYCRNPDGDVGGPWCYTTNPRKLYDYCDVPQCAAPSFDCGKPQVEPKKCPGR

Regarding `N=C(N)c1ccc2cc(O)ccc2c1` [6-amidino-2-naphthol, reference compound], the pIC50 in the series on Kallikrein was less than 3.00; on Trypsin [4] it was less than 3.00; on Plasmin [5], 3.36; at Thrombin [6] (molar concentration inhibiting 50% of TAME hydrolysis, read-out: Thrombin ID50), less than 3.00. Further, on Trypsin [1], the “Trypsin inhibition in words” value is “inhibits trypsin, plasmin and thrombin”. Moreover, the “Thrombin inhibition in words” value at Thrombin [2] is “inhibits trypsin, plasmin and thrombin”. In addition, on Plasmin [3], the “Plasmin inhibition in words” value was “inhibits trypsin, plasmin and thrombin”.

What is called LD50 is the dose at which mortality reaches 50%. The term inhibition denotes the relative decrease from the control value, in per cent. On to `N=C(N)c1ccc2cc(OC(=O)c3ccc(CN)cc3)ccc2c1` [Compound 22, 6-amidino-2-naphthyl 4-aminomethylbenzoate], for which the “Inhibition of complement mediated hemolysis (%)” value (shortened to “Inhibition … (%)”) in series [7] (1 × 10^-4) is 100%; in series [7] (1 × 10^-5), 99%; in series [7] (1 × 10^-6), 90%; in series [7] (1 × 10^-7) it was 48%. For the same molecule, the pIC50 was 6.52 on C1r (AAME hydrolysis, read-out: Anti-C1 activity, C1r ID50); 5.52 in the series with Kallikrein; 5.40 at Trypsin [4]; 5.40 at Plasmin [5]; 6.70 at C1s [9]. Moreover, the “Time elapsed until death, individual animal” value with Forssman shock (1.0 mg/kg intravenous) is 240 s and 630 s and 250 s and 570 s and 440 s and 675 s; in the series with Forssman shock (3.0 mg/kg intravenous) it was 745 s and 1410 s and 600 s and 885 s and 455 s and 435 s. Further, the “Time elapsed until death, average” value in the series on Forssman shock (1.0 mg/kg intravenous, control average 465 (No. 27), 428 (No. 22)) was determined as 468 s; in the series with Forssman shock (3.0 mg/kg intravenous, control average 428), 755 s. In addition, the figures for the LD50 in [8] (ip) and in [8] (po) were 200 mg/kg and 2500 mg/kg, respectively. Besides, the inhibition at 10 µM on Thrombin [6] turned out to be 26%.

On to `N=C(N)c1ccc2cc(OC(=O)CCc3ccc(N)cc3)ccc2c1` [Compound 51, 6-amidino-2-naphthyl 4-aminophenylpropionate], for which the “Inhibition … (%)” value in series [7] (1 × 10^-4) amounted to 54%; in [7] (1 × 10^-5) it was 6%; in series [7] (1 × 10^-6), 1%; in series [7] (1 × 10^-7), 0%. For the same molecule, the inhibition at 10 µM stood at 18% on C1r (at 1×10^-5 M, read-out: Anti-C1 activity, C1r percent inhibition); 21% on C1s [10]; 35% at Thrombin [6]. The results for the pIC50 on Trypsin [4] and on Plasmin [5] were 5.00 and 5.22, respectively.

`CC(=O)N[C@@H](CC(C)C)C(=O)N[C@@H](CC(C)C)C(=O)N[C@H](C=O)CCCNC(=N)N` [Leupeptin, reference compound]: the “Inhibition … (%)” value in series [7] (1 × 10^-4) was 97%; in series [7] (1 × 10^-5) it was 52%; in series [7] (1 × 10^-6), 0%; in [7] (1 × 10^-7) it was 0%. Further, in the series with complement, the “Anti-complement activity in words” value is “having an anti-complement activity”.
